Results as given in ChEMBL document CHEMBL1140830, “Ergoline derivatives as highly potent and selective antagonists at the somatostatin sst 1 receptor” (Bioorg Med Chem Lett, 2008).

Tests used:
[1] = target: Somatostatin receptor type 1 (Rattus norvegicus, UniProt P28646); test: Displacement of [125I]SRIF14 from sst1 receptor in rat cortex
[2] = target: Somatostatin receptor type 2 (Rattus norvegicus, UniProt P30680); test: Displacement of [125I][Tyr3]octreotide from sst2 receptor in rat cortex
Somatostatin receptor type 2 (Rattus norvegicus, UniProt P30680), sequence (P30680 whole entry): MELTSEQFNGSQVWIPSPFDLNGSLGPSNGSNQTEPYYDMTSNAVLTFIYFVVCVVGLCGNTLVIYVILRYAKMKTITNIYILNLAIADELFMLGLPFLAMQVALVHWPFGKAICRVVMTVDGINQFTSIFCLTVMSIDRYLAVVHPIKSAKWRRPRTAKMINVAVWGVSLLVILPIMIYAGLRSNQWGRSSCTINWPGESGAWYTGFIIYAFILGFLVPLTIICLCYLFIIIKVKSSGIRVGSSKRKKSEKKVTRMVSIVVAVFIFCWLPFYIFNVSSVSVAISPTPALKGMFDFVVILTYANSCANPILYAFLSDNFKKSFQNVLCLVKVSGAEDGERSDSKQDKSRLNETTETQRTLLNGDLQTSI

[3] = target: T1, Somatostatin receptor type 1 (Homo sapiens, UniProt P30872); test: Antagonist activity at human recombinant sst1 receptor in CCl39 cells assessed as SRIF14-induced inhibition of forskolin-stimulated adenylate cyclase activity; format: functional, cell-based
T1 sequence (P30872 whole entry): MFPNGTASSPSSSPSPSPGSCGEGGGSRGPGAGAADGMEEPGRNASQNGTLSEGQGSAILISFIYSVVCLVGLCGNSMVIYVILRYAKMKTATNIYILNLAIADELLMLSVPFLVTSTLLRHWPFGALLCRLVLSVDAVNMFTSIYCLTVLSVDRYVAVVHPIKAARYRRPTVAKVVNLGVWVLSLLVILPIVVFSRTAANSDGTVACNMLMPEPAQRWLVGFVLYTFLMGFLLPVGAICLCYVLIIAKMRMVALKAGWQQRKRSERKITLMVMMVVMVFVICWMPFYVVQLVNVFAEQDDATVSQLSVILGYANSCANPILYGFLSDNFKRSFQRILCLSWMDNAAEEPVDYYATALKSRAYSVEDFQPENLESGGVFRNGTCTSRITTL

[4] = target: T1, Somatostatin receptor type 1; test: Antagonist activity at human recombinant sst1 receptor assessed as inhibition of SRIF28-induced luciferase activity; format: functional
[5] = target: T1, Somatostatin receptor type 1; test: Binding affinity to human recombinant sst1 receptor
[6] = target: Somatostatin receptor type 2 (Homo sapiens, UniProt P30874); test: Binding affinity to human recombinant sst2 receptor
Somatostatin receptor type 2 (Homo sapiens, UniProt P30874), sequence (P30874 whole entry): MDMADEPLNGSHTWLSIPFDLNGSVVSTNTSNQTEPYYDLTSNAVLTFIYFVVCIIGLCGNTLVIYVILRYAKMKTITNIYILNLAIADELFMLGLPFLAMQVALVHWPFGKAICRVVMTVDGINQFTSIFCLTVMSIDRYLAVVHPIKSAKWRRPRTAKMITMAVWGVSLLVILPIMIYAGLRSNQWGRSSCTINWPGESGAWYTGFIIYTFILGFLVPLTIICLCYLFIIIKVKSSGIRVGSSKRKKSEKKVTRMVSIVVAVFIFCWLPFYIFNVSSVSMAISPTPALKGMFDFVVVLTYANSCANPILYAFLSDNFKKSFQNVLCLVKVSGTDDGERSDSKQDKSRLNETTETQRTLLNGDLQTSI

[7] = target: Somatostatin receptor type 3 (Homo sapiens, UniProt P32745); test: Binding affinity to human recombinant sst3 receptor
Somatostatin receptor type 3, sequence (P32745 whole entry): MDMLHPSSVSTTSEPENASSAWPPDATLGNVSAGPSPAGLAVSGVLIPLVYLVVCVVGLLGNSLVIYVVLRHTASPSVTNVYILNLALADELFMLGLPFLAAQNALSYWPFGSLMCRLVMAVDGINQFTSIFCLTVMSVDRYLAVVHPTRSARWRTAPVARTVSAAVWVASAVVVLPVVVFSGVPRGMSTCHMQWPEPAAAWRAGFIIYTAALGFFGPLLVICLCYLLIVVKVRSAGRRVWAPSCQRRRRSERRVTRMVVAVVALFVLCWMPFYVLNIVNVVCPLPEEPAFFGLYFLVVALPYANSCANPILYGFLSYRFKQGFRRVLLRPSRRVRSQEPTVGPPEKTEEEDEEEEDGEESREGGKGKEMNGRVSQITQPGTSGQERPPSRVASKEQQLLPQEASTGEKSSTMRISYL

[8] = target: Somatostatin receptor type 4 (Homo sapiens, UniProt P31391); test: Binding affinity to human recombinant sst4 receptor
Somatostatin receptor type 4, sequence (P31391 whole entry): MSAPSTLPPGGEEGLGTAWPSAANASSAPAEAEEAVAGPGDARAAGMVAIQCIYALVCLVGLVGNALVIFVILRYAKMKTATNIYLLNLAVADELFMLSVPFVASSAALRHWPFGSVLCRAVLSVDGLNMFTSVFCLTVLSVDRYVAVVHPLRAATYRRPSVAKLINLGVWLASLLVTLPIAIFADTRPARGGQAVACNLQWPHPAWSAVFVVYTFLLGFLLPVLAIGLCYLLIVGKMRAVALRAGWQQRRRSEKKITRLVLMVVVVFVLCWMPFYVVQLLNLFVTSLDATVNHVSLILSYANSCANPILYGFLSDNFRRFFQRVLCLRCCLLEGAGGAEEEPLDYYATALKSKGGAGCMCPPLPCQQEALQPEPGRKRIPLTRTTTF

[9] = target: Somatostatin receptor type 5 (Homo sapiens, UniProt P35346); test: Binding affinity to human recombinant sst5 receptor
Somatostatin receptor type 5, sequence (P35346 whole entry): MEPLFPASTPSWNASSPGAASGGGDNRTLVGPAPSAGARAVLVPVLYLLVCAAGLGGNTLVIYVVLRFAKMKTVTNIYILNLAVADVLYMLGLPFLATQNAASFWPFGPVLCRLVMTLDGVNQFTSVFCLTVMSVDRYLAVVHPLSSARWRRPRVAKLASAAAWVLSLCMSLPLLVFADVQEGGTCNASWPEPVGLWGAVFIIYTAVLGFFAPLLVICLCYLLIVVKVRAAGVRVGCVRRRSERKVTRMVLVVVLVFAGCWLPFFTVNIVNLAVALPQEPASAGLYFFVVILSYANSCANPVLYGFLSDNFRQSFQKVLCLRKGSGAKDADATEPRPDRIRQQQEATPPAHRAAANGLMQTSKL

D(2) dopamine receptor = D(2) dopamine receptor (Homo sapiens, UniProt P14416); test: Binding affinity to human dopamine D2 receptor
D(2) dopamine receptor, sequence (P14416 whole entry): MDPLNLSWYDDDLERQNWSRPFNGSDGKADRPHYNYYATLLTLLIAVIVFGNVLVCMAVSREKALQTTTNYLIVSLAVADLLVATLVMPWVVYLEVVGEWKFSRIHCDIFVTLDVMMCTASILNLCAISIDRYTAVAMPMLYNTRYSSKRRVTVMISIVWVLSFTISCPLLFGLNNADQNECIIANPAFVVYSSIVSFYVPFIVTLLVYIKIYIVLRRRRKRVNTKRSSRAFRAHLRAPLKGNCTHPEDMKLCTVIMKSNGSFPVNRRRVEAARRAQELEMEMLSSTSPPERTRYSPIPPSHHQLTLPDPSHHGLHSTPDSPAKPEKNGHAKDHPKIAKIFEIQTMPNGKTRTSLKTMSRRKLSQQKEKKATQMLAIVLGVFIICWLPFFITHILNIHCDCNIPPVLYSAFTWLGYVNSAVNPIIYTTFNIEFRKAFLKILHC

D(4) dopamine receptor = target: T2, D(4) dopamine receptor (Homo sapiens, UniProt P21917); test: Binding affinity to human dopamine D4 receptor
T2 sequence (P21917 whole entry): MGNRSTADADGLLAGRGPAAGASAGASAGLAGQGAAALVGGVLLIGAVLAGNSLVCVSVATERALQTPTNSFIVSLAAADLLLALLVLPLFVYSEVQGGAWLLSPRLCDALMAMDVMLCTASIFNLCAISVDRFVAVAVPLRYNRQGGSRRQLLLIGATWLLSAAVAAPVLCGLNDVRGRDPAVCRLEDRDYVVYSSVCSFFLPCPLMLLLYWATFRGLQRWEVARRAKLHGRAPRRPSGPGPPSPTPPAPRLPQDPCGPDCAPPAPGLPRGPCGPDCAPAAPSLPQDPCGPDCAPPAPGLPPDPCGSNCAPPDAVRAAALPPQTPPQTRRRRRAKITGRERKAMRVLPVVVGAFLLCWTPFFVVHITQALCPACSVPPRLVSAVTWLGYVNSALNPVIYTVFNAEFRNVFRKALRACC

[10] = target: T3, 5-hydroxytryptamine receptor 1A (Homo sapiens, UniProt P08908); test: Binding affinity to human 5HT1A receptor
T3 sequence (P08908 whole entry): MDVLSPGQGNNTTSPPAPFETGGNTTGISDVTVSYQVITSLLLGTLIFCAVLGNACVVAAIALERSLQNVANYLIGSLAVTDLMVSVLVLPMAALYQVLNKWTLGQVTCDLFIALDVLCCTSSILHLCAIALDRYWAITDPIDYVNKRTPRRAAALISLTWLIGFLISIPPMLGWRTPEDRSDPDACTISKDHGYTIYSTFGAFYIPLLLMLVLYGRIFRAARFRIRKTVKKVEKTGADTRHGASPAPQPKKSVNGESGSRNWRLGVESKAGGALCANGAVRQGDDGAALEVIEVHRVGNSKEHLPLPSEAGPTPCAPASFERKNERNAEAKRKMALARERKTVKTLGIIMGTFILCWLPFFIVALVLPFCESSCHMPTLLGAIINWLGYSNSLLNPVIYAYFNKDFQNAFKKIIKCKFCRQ

[11] = Oral bioavailability in rat; format: ADME, organism-based; conditions: in vivo
[12] = Ratio of drug level in brain to plasma in rat at 30 umol/kg after 10 mins; format: ADME; conditions: brain and plasma
[13] = Ratio of drug level in brain to plasma in rat at 30 umol/kg after 24 hrs; format: ADME; conditions: brain and plasma

Somatostatin receptor type 1 (Rattus norvegicus, UniProt P28646), sequence (P28646 whole entry): as the sequence (P30872 whole entry) above, with S8P, S11T, P16S, S20G, G25V, G26C, A32S, A45S, T385A, T389S counted along it

SMILES	Kd [1] [nM]	Kd [2] [µM]	further results
CCN1C[C@H](C(=O)N2CCN(c3ccc(F)c(F)c3)CC2)C[C@@H]2c3cccc4[nH]c(Br)c(c34)C[C@H]21	0.977	13.2	–
O=C([C@H]1CN[C@@H]2Cc3c(Br)[nH]c4cccc(c34)[C@H]2C1)N1CCN(c2ccccn2)CC1	170	7.94	–
CN1C[C@H](C(=O)N2CCN(c3cccc(=O)n3C)CC2)C[C@@H]2c3cccc4[nH]c(Cl)c(c34)C[C@H]21	0.389	49	–
CSc1[nH]c2cccc3c2c1C[C@@H]1[C@@H]3C[C@@H](C(=O)N2CCN(c3ccccn3)CC2)CN1C	2.4	8.51	–
CCn1c(N2CCN(C(=O)[C@@H]3C[C@@H]4c5cccc6[nH]c(Cl)c(c56)C[C@H]4N(C)C3)CC2)cccc1=O	0.38	12	–
CN1C[C@H](C(=O)N2CCN(c3ccccn3)CC2)C[C@@H]2c3cccc4[nH]c(Cl)c(c34)C[C@H]21	12.9	–	–
CN1C[C@H](C(=O)N2CCN(c3ccccn3)CC2)C[C@@H]2c3cccc4[nH]c(S(C)(=O)=O)c(c34)C[C@H]21	309	7.76	–
CN1C[C@H](C(=O)N2CCN(c3ccc4nsnc4n3)CC2)C[C@@H]2c3cccc4[nH]cc(c34)C[C@H]21	1.02	3.02	–
CN1C[C@H](C(=O)N2CCN(c3cccc(=O)n3C)CC2)C[C@@H]2c3cccc4[nH]c(Br)c(c34)C[C@H]21 [ERGOLINE]	–	–	pKb [3]: 7.85; pKb [4]: 8.85
CN1C[C@H](C(=O)N2CCN(c3ccccn3)CC2)C[C@@H]2c3cccc4[nH]c(Br)c(c34)C[C@H]21	4.47	16.6	–
CN1C[C@@H](C(=O)N2CCN(c3ccc4nonc4c3)CC2)C[C@H]2c3cccc4[nH]c(Br)c(c34)C[C@@H]21	182	12.6	Kd [5]: 501 nM; Kd [6]: 3.89 µM; Kd [7]: 7.24 µM; Kd [8]: 5.62 µM; Kd [9]: 23.4 µM
CCCCN1C[C@H](C(=O)N2CCN(c3ccccn3)CC2)C[C@@H]2c3cccc4[nH]c(Br)c(c34)C[C@H]21	1150	–	–
CN1C[C@H](C(=O)N2CCN(c3ccc4nsnc4n3)CC2)C[C@@H]2c3cccc4[nH]c(Cl)c(c34)C[C@H]21	0.24	3.89	–
CN1C[C@H](C(=O)N2CCN(c3ccc4nonc4c3)CC2)C[C@@H]2c3cccc4[nH]c(Cl)c(c34)C[C@H]21	0.389	5.13	–
CN1C[C@H](C(=O)N2CCN(c3ccc([N+](=O)[O-])cc3)CC2)C[C@@H]2c3cccc4[nH]c(Br)c(c34)C[C@H]21	1.35	7.24	–
CN1C[C@H](C(=O)N2CCN(c3ccc(Cl)cc3)CC2)C[C@@H]2c3cccc4[nH]cc(c34)C[C@H]21	19.5	2.19	–
CN1C[C@H](C(=O)N2CCN(c3ccccn3)CC2)C[C@@H]2c3cccc4[nH]c([S+](C)[O-])c(c34)C[C@H]21 (stereo partly specified)	2630	17.8	–

SMILES	Kd [1] [nM]	Kd [2] [µM]	further results
CN1C[C@H](C(=O)N2CCN(c3ccccn3)CC2)C[C@@H]2c3cccc4[nH]cc(c34)C[C@H]21	14.1	17.8	–
CN1C[C@H](C(=O)N2CCN(c3ccc([N+](=O)[O-])cc3)CC2)C[C@@H]2c3cccc4[nH]c(Cl)c(c34)C[C@H]21	1.26	8.91	–
CC(C)CCN1C[C@H](C(=O)N2CCN(c3ccccn3)CC2)C[C@@H]2c3cccc4[nH]c(Br)c(c34)C[C@H]21	1740	–	–
CN1C[C@H](C(=O)N2CCN(c3cccc(=O)n3C)CC2)C[C@@H]2c3cccc4[nH]cc(c34)C[C@H]21	0.759	7.76	–
CN1C[C@H](C(=O)N2CCN(c3ccccn3)CC2)C[C@@H]2c3cccc4[nH]c(O)c(c34)C[C@H]21	240	8.51	–
CN1C[C@H](C(=O)N2CCN(c3ccccn3)CC2)C[C@@H]2c3cccc4[nH]c(I)c(c34)C[C@H]21	16.6	5.62	–
CN1C[C@H](C(=O)N2CCN(c3ccc4nsnc4n3)CC2)C[C@@H]2c3cccc4[nH]c(Br)c(c34)C[C@H]21	0.372	4.57	–
COCCN1C[C@H](C(=O)N2CCN(c3ccccn3)CC2)C[C@@H]2c3cccc4[nH]c(Br)c(c34)C[C@H]21	1480	–	–
CN1C[C@H](C(=O)N2CCN(c3ccc([N+](=O)[O-])cc3)CC2)C[C@@H]2c3cccc4[nH]cc(c34)C[C@H]21	3.89	3.16	–
CN1C[C@H](C(=O)N2CCN(c3ccc4nonc4c3)CC2)C[C@@H]2c3cccc4[nH]c(Br)c(c34)C[C@H]21	0.372	6.46	Kd [5]: 1.23 nM; Kd [6]: 6.76 µM; Kd [7]: 2.34 µM; Kd [8]: 3.63 µM; Kd [9]: 6.46 µM; Kd (D(2) dopamine receptor): 126 nM; Kd (D(4) dopamine receptor): 77.6 nM; Kd [10]: 28.2 nM; pKb [3]: 7.62; pKb [4]: 9.42; bioavailability [11]: 48%; Kp at 10 min [12]: 0.7; Kp at 24 h [13]: 1.7
CN1C[C@H](C(=O)N2CCN(c3ccc(Cl)cc3)CC2)C[C@@H]2c3cccc4[nH]c(Cl)c(c34)C[C@H]21	4.17	5.89	–
CN1C[C@H](C(=O)N2CCN(c3ccc(Cl)cc3)CC2)C[C@@H]2c3cccc4[nH]c(Br)c(c34)C[C@H]21	5.5	2	–
CN1C[C@H](C(=O)N2CCN(c3ccc(F)c(F)c3)CC2)C[C@@H]2c3cccc4[nH]c(Cl)c(c34)C[C@H]21	0.603	12.9	–
CN1C[C@H](C(=O)N2CCN(c3ccc(F)c(F)c3)CC2)C[C@@H]2c3cccc4[nH]c(Br)c(c34)C[C@H]21	0.49	8.13	–
O=C([C@@H]1C[C@@H]2c3cccc4[nH]c(Br)c(c34)C[C@H]2N(CCCO)C1)N1CCN(c2ccccn2)CC1	2340	–	–
CCn1c(N2CCN(C(=O)[C@@H]3C[C@@H]4c5cccc6[nH]c(Br)c(c56)C[C@H]4N(C)C3)CC2)cccc1=O	0.282	26.3	–
CN1C[C@@H](C(=O)N2CCN(c3cccc(=O)n3C)CC2)C[C@H]2c3cccc4[nH]c(Br)c(c34)C[C@@H]21	417	20.4	Kd [5]: 1950 nM; Kd [6]: 9.33 µM; Kd [7]: 5.37 µM; Kd [8]: 8.13 µM; Kd [9]: 69.2 µM
